From EP1391197B1, “Process for preparation of compositions with a high content in avarol and their use” (KliniPharm GmbH, priority 2002, dated 2004)

Target: T1, 5-Lipoxygenase (Homo sapiens, UniProt P09917)
T1 construct: Granulozyten freiwilliger Spender; endogenous in cells; host or cells: granulocytes of volunteer donors
T1 sequence (P09917 1-674): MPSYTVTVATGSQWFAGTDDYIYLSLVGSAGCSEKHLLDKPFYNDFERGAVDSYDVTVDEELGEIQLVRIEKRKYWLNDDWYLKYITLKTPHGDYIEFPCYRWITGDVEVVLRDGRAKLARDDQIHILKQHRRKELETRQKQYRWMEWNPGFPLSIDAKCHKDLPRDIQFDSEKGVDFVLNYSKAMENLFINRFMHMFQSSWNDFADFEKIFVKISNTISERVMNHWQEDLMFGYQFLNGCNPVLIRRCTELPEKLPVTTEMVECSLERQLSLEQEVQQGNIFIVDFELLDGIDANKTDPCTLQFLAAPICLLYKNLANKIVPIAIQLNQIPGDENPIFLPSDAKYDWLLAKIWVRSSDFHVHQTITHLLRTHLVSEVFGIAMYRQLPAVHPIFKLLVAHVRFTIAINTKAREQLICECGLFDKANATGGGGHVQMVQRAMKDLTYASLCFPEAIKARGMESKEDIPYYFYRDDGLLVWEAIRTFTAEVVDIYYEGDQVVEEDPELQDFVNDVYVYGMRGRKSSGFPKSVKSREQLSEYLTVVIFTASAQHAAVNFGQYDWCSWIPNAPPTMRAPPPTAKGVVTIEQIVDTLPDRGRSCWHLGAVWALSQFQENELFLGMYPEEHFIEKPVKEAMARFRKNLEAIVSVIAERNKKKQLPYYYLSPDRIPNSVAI
Assay: 5-lipoxygenase test in granulocytes (HPLC of 5-lipoxygenase products)
Assay type: cell-based
Conditions: granulocytes of volunteer donors, arachidonic acid and calcium ionophore, 37°C, 10 min, pH 7,4; read-out: IC50- Wert (Bildung von Biotransformationsprodukten der 5-Lipoxygenase)
Method: Granulozyten freiwilliger Spender [5-10 x 10^6 / ml] wurden in gepufferter physiologischer Kochsalzlösung [pH 7,4] mit Arachidonsäure [40µmol] und Calciumionophor [10µmol] und steigenden Konzentrationen [10nMol bis 10µMol] der Prüfsubstanzen, Avarol bzw. einer Avarol - Zusammensetzung gemäß Beispiel 3, bei 37°C 10 Minuten lang inkubiert. Anschließend wurden die Reaktion durch Zugabe von 1ml Methanol beendet, die Proben zentrifugiert und die Konzentration an Biotransformations-Produkten der 5-Lipoxygenase im Überstand per HPLC im UV bei 280 und 235nm analysiert. Avarol und die neue Zusammensetzung mit hohem Avarolgehalt, der Dysidea avara-Nativextrakt, hemmten die Bildung von Biotransformationsprodukten der 5-Lipoxygenase. Die IC50- Werte unterschieden sich aber auffällig deutlich. Während für Avarol ein IC50- Wert von 1,3 µM ermittelt wurde, der sich mit Literaturangaben deckt, hemmte die neue Zusammensetzung die Bildung von Produkten der 5-Lipoxygenase bereits mit einem IC50- Wert von 58 nM und war damit überraschend stärker wirksam als Avarol.

IC50: 1300 nM
SMILES: CC1=CCC[C@H]2[C@](C)(Cc3cc(O)ccc3O)[C@@H](C)CC[C@]12C [Avarol]
